Earlier results as cited in patent publication US20240398838A1 (priority 2023, published 2024).
Square brackets hold non-standard residues; d marks the D form. Peptide text beside a SMILES is read from it. Cit = NC(=O)NCCC[C@H](N)C(=O)O

Legend:
[1] = patients who did not respond to traditional antidepressant medications
[2] = mice with colitis
[3] = compared to placebo
[4] = test system: herpes simplex virus type 1
[5] = test system: wide dynamic range neurons in the ventroposterolateral nucleus of the thalamus; conditions: in vivo
[6] = in vivo
[7] = topical, within four weeks of treatment
[8] = topical, concentrations 0.5-5%
ticks and mosquitoes = conditions: compared with DEET
[9] = test system: leukemia cells of two cultured leukemia cell lines; conditions: in vitro
[10] = not given; remark: listed apart in the source
[11] = arthritic subjects
CB2 receptor = CB2 receptor (Homo sapiens, UniProt P34972)
[12] = compared to α-tocopherol = 1.0
[13] = even when dietary intake occurs in equal portions
[14] = individuals with metabolic syndrome
[15] = in vivo; remark: listed apart in the source

Chain of CB2 receptor (P34972 whole entry): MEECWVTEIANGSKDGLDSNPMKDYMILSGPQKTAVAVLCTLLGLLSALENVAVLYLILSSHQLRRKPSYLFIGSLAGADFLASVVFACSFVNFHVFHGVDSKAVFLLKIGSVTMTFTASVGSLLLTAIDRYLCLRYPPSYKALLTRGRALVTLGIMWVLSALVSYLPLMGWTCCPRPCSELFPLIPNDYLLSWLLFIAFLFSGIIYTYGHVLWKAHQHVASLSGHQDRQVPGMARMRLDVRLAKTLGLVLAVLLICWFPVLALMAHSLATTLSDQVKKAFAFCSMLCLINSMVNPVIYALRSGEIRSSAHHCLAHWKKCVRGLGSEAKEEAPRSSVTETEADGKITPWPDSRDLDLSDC

Which symptoms of depression [1] does the source give for `CN1c2c([nH]c(N)nc2=O)NCC1CNc1ccc(C(=O)N[C@@H](CCC(=O)O)C(=O)O)cc1` (some centres unmarked) [5-MTHF, 5-methyltetrahydrofolate] here?
The symptoms of depression was “improved symptoms of depression”.

With `CC(C)=CCC[C@](C)(O)[C@@H]1CC=C(C)CC1` [A-bisabolol, α-bisabolol] as the compound, how does the antifungal activity (candida species) read?
The antifungal activity was “potent inhibitor”.

With `C=C(C)[C@@H]1CCC(C)=C[C@H]1c1c(O)cc(CCCCC)cc1O` [CBD, cannabidiol] as the compound, how does the “modulation of the gut microbiome” value [2] read?
The value was “ability to modulate the gut microbiome”.

For `C/C=C1\[C@H]2C=C(C)C[C@]1(N)c1ccc(=O)[nH]c1C2` [Huperzine A], which “memory recall and cognitive function” value [3] is on record?
Its value is “significant improvements”.

Which “inhibition of herpes simplex virus type 1” value [4] does the source give for `CC1(C)[C@@H]2CC[C@@]1(C)[C@@H](O)C2` [Isoborneol] here?
Its value is “potent inhibitor”.

Which solubility does the source give for `C/C(=C\CO)CCC[C@H](C)CCC[C@H](C)CCCC(C)C` [Phytol] here?
Its solubility is “nearly insoluble in water, but soluble in most organic solvents”.

Which results are given for `CCCCCc1cc(O)c2c(c1)OC(C)(C)C1CCC(C)=CC21` (centres unmarked) [THC, Δ-9-tetrahydrocannabinol]?
power in mediating pain relative to morphine [5]: ten times more powerful than morphine; modulation of the gut microbiome [2]: ability to modulate the gut microbiome

With `CC1=CCC(=C(C)C)CC1` [Terpinolene] as the compound, how does the “expression of the AKT1 gene” value (AKT1 gene) read?
Its value is “markedly reduces”.

With `CCNC(=O)CC[C@H](N)C(=O)O` [Theanine] as the compound, how does the “dose considered safe and well-tolerated” value [6] read?
Its value is “up to 400 mg per day”.

For `CC[C@H](C)[C@H](NC(=O)[C@H](CC(=O)O)NC(=O)[C@@H](N)CCCCN)C(=O)N[C@@H](CCCNC(N)=O)C(N)=O` [Tripeptide-10 citrulline] (H-KDI[Cit]-NH2), which improve suppleness [7] is on record?
The improve suppleness was no more than 54%.

With `C=CCCCCCCCCC(=O)N[C@@H](Cc1ccccc1)C(=O)O` [UP, Undecylenoyl phenylalanine] as the compound, how does the “time of treatment to skin lightening effects” value [8] read?
Its value is no less than 7 days.

For `C=C(C)[C@@H]1CCC2=CCC[C@@H](C)[C@]2(C)C1` [Valencene], which “toxicity to ticks and mosquitoes” value (ticks and mosquitoes) is on record?
Its value is “toxic to ticks and mosquitoes at lesser concentrations than DEET”.

For `CC12CCC(CC1)C(C)(C)O2` [eucalyptol, 1,8-epoxy-p-menthane], which “killing of leukemia cells” value [9] is on record?
Its value is “able to kill”.

With `Cc1ccc(C(C)C)cc1` [p-cymene, 1-isopropyl-4-methylbenzene] as the compound, how does the antifungal activity (candida species) read?
The antifungal activity was “strong antifungal activity”.

What does the source list for `Cc1c(C)c2c(c(C)c1O)CC[C@@](C)(CCC[C@H](C)CCC[C@H](C)CCCC(C)C)O2` [α-tocopherol]?
blood plasma concentration of F2-isoprostane ([10]; 1600-3200 IU/day): significantly lower; reducing the risk of coronary disease ([10]; doses up to 400 IU/day): up to 34%; reduce the risk of developing neurodegenerative diseases such as Alzheimer's Syndrome or dementia ([10]; doses up to 400 IU/day, controlled trials): ≤ 24%

With `C=C1CC/C=C(\C)CC[C@@H]2[C@@H]1CC2(C)C` [β-caryophyllene] as the compound, how does the “swelling of joints and lymph nodes” value [11] read?
The value was “reduced swelling of joints and lymph nodes”.

What about the “activity at CB2 receptor” value (CB2 receptor) of the same compound?
The value was “functional CB2 agonist”.

For `Cc1cc(O)c(C)c2c1O[C@](C)(CCC[C@H](C)CCC[C@H](C)CCCC(C)C)CC2` [β-tocopherol], which relative biological activity [12] is on record?
Its relative biological activity is 0.5.

With `Cc1c(O)cc2c(c1C)O[C@](C)(CCC[C@H](C)CCC[C@H](C)CCCC(C)C)CC2` [γ-tocopherol] as the compound, how does the relative biological activity [12] read?
The relative biological activity was 0.1.

And the “concentration in vivo relative to α-tocopherol” value [13]?
The value was “roughly 10%”.

Which results are given for `Cc1cc(O)cc2c1O[C@](C)(CCC[C@H](C)CCC[C@H](C)CCCC(C)C)CC2` [δ-tocopherol]?
markers of inflammation in the blood [14]: reduced markers of inflammation; relative biological activity [12]: 0.03

Which biological half-life [15] does the source give for “HGH: hormone comprising a peptide chain that is synthesized in the pituitary gland” here?
Its biological half-life is 10-20 minutes.
